In US20130254944A1, “Herbicide Tolerant Soybeans and Methods of Use” (PIONEER HI BRED INTERNATIONAL INC, priority 2012, published 2013):

Columns and labels:
Format in all cases: in vivo
wild type soybean = assay: Greenhouse postemergence test of ALS-inhibiting herbicides, wild type soybean
Experimental: (§1) Soybean lines having wild type als1 & 2 genes, the Als1 mutation, the Als2 mutation, or both the Als1 and Als2 mutations were evaluated for their response to various herbicides. Two seeds from each line were planted into 4-inch pots containing Redi-Earth potting mix (Sun Gro Horticulture Canada Ltd. 52130 RR65, Seba Beach, Alberta TOE 2B0), with two replications planted for each treatment. Pots were placed in flats at 15 pots/flat, and the resulting plants were grown in a greenhouse environment supplemented with lighting (16 hr photoperiod) for the duration of the test. Selected herbicides representing the mode of action that inhibits the acetolactate synthase enzyme, also known as the acetohydroxyacid synthase enzyme, were applied postemergence to soybean when soybean plants were at the V2 growth stage, which is the stage at which the first two trifoliolate leaves were expanded.
(§2) Eleven active ingredients representing the five chemical families with herbicidal activity on the acetolactate synthase enzyme were tested. These herbicides can cause a phytotoxic response in wild type soybean plants. The five chemical families tested were sulfonylaminocarbonyltriazolinone (also known as triazolinone), imidazolinone, sulfonylurea, pyrimidinylthiobenzoate, and triazolopyrimidine. Application rates ranged from 0.5 times to eight times the currently labeled application rate for each active ingredient with spray application volume at 30 gallons/acre. The application rates tested were 0.5×, 1×, 2×, 4× and 8× the label rate for each herbicide. Herbicidal active ingredients were applied as formulated materials dispersed in water containing 0.25% nonionic surfactant (Trend® 90).
(§3) The test was evaluated by visually scoring plant phenotype 14 days after the herbicides were applied. Controls consisted of soybean plants of the same variety that received no herbicide treatments for each of all the varieties tested. Soybean response was recorded on a zero to 100 visual scale in which zero is no phytotoxic response and 100 is plant death fourteen days after the herbicides were applied. Soybean response (percent phytotoxicity) to postemergence applications of herbicides inhibiting the acetolactate synthase enzyme test results are shown in Table 1.

[1] = tested on: soybean having the Als2 mutation; assay: Greenhouse postemergence test of ALS-inhibiting herbicides, soybean with Als2 mutation; settings: for Avg response (% phytotoxicity), Trait Als2: Table 2; for EC10, Als2: rate of herbicide estimated to cause 10% phytotoxic response, loglogistic fit
Experimental: as §1, §2, §3
(§4) Results in Table 1 were evaluated using the isobole method for analyzing interactions. […] Here the biologically active agents that are being assessed for interaction (synergy) are gene mutations in soybean. The effectiveness of the genes in providing improved tolerance to ALS-inhibiting herbicides was assessed by applying increasing doses of herbicides to each soybean line with its mutation(s).
(§5) An isobole reduces a dose response surface in three dimensional space to a two dimensional plot by fixing a defined response level (e.g., 50% response). The isobole plot is a graph in the Cartesian plane with a straight line connecting the isoeffective rates of the individual components of the combination. This straight line represents expected responses for zero interactive combinations. The isoeffective rate used to create the isobole is often the EC50, the rate estimated to elicit 50% response, but other ECx values can be used. Since the isobole method is based on the potency of the components of the combination, an experimental design testing a range of rates expected to elicit the full range of responses (e.g., 0 to maximum response) is best. (Ferry et al. (2005) 2005 Conference on Applied Statistics in Agriculture Proceedings pp 33-50, Manhattan, Kans., Kansas State Univ.; Green and Streibig (1993) Herbicide Mixtures, pp 117-134 in Herbicide Bioassays, Streibig and Hudsk Eds, CRC, Boca Raton, Fla.).
(§6) Loglogistic dose response curves were fit to percent phytotoxicity response data using log 10 of dose (McCullagh and Nelder (1989) Generalized Linear Models, Chapman & Hall, London). Curves were fit using the logit link with normal errors. […]

[2] = tested on: soybean having the Als1 mutation; assay: Greenhouse postemergence test of ALS-inhibiting herbicides, soybean with Als1 mutation; settings: for Avg response (% phytotoxicity), Trait Als1: Table 2; for EC10, Als1: rate of herbicide estimated to cause 10% phytotoxic response, loglogistic fit
Experimental: as §1, §2, §3, §4, §5, §6

[3] = tested on: soybean having both the Als1 and Als2 mutations; assay: Greenhouse postemergence test of ALS-inhibiting herbicides and isobole analysis, soybean with Als1 and Als2 mutations; settings: for Avg response (% phytotoxicity), Trait Als1 + Als2: Table 2; for EC10, Als1 + Als2: rate of herbicide estimated to cause 10% phytotoxic response, loglogistic fit
Experimental: as §1, §2, §3, §4, §5, §6

[4] = 4.38 g ai/ha postemergence at V2, scored 14 days after application
[5] = 8.75 g ai/ha postemergence at V2, scored 14 days after application
[6] = 17.5 g ai/ha postemergence at V2, scored 14 days after application
[7] = 35 g ai/ha postemergence at V2, scored 14 days after application
[8] = 70 g ai/ha postemergence at V2, scored 14 days after application
[9] = rates 0.5x to 8x the label rate

Cc1cc(C)nc(NC(=O)NS(=O)(=O)c2ccccc2C(=O)O)n1 [Sulfometuron]
0%: Soybean response (percent phytotoxicity), Als1 [2, 4] | Avg response (% phytotoxicity), Trait Als1 ([2]; 4.38 g ai/ha) | Soybean response (percent phytotoxicity), Als1 [2, 5] | Avg response (% phytotoxicity), Trait Als1 ([2]; 8.75 g ai/ha) | Soybean response (percent phytotoxicity), Als1 + Als2 [3, 4] | Avg response (% phytotoxicity), Trait Als1 + Als2 ([3]; 4.38 g ai/ha) | Soybean response (percent phytotoxicity), Als1 + Als2 [3, 5] | Avg response (% phytotoxicity), Trait Als1 + Als2 ([3]; 8.75 g ai/ha) | Soybean response (percent phytotoxicity), Als1 + Als2 [3, 6] | Avg response (% phytotoxicity), Trait Als1 + Als2 ([3]; 17.5 g ai/ha)
98%: Soybean response (percent phytotoxicity), Wild type (wild type soybean; [6]) | Soybean response (percent phytotoxicity), Wild type (wild type soybean; [7]) | Soybean response (percent phytotoxicity), Wild type (wild type soybean; [8])
75%: Soybean response (percent phytotoxicity), Als2 [1, 7] | Avg response (% phytotoxicity), Trait Als2 ([1]; 35 g ai/ha)
substantial phytotoxicity: phytotoxicity (in words), soybean containing only the Als2 gene ([1]; the higher doses) | phytotoxicity (in words), soybean containing only the Als1 gene ([2]; the higher doses)
extremely tolerant: tolerance (in words), soybean containing both the Als1 and the Als2 genes ([3]; the higher doses)
114.81 g ai/ha: EC10, Als1 + Als2 [3]
5%: Soybean response (percent phytotoxicity), Als1 + Als2 [3, 8] | Avg response (% phytotoxicity), Trait Als1 + Als2 ([3]; 70 g ai/ha)
0.76 g ai/ha: EC10, Als2 [1]
70%: Soybean response (percent phytotoxicity), Als2 [1, 6] | Avg response (% phytotoxicity), Trait Als2 ([1]; 17.5 g ai/ha)
14.93 g ai/ha: EC10, Als1 [2]
80%: Soybean response (percent phytotoxicity), Als2 [1, 8] | Avg response (% phytotoxicity), Trait Als2 ([1]; 70 g ai/ha) | Soybean response (percent phytotoxicity), Als1 [2, 8] | Avg response (% phytotoxicity), Trait Als1 ([2]; 70 g ai/ha)
40%: Soybean response (percent phytotoxicity), Als2 [1, 5] | Avg response (% phytotoxicity), Trait Als2 ([1]; 8.75 g ai/ha)
35%: Soybean response (percent phytotoxicity), Als2 [1, 4] | Avg response (% phytotoxicity), Trait Als2 ([1]; 4.38 g ai/ha)
60%: Soybean response (percent phytotoxicity), Wild type (wild type soybean; [4])
95%: Soybean response (percent phytotoxicity), Wild type (wild type soybean; [5])
55%: Soybean response (percent phytotoxicity), Als1 [2, 7] | Avg response (% phytotoxicity), Trait Als1 ([2]; 35 g ai/ha)
10%: Soybean response (percent phytotoxicity), Als1 [2, 6] | Avg response (% phytotoxicity), Trait Als1 ([2]; 17.5 g ai/ha) | Soybean response (percent phytotoxicity), Als1 + Als2 [3, 7] | Avg response (% phytotoxicity), Trait Als1 + Als2 ([3]; 35 g ai/ha)

COc1nc(C)nc(NC(=O)NS(=O)(=O)c2ccsc2C(=O)O)n1 [Thifensulfuron]
0%: Soybean response (percent phytotoxicity), Wild type (wild type soybean; [4]) | Soybean response (percent phytotoxicity), Als2 [1, 4] | Soybean response (percent phytotoxicity), Als2 [1, 5] | Soybean response (percent phytotoxicity), Als2 [1, 6] | Soybean response (percent phytotoxicity), Als2 [1, 7] | Soybean response (percent phytotoxicity), Als2 [1, 8] | Soybean response (percent phytotoxicity), Als1 [2, 4] | Soybean response (percent phytotoxicity), Als1 [2, 5] | Soybean response (percent phytotoxicity), Als1 [2, 6] | Soybean response (percent phytotoxicity), Als1 [2, 7] | Soybean response (percent phytotoxicity), Als1 [2, 8] | Soybean response (percent phytotoxicity), Als1 + Als2 [3, 4] | Soybean response (percent phytotoxicity), Als1 + Als2 [3, 5] | Soybean response (percent phytotoxicity), Als1 + Als2 [3, 6] | Soybean response (percent phytotoxicity), Als1 + Als2 [3, 7] | Soybean response (percent phytotoxicity), Als1 + Als2 [3, 8]
25%: Soybean response (percent phytotoxicity), Wild type (wild type soybean; [7])
45%: Soybean response (percent phytotoxicity), Wild type (wild type soybean; [8])
did not cause any phytotoxic response: phytotoxic response (in words), Als2 [1, 9] | phytotoxic response (in words), Als1 [2, 9] | phytotoxic response (in words), Als1+Als2 [3, 9]
10%: Soybean response (percent phytotoxicity), Wild type (wild type soybean; [5]) | Soybean response (percent phytotoxicity), Wild type (wild type soybean; [6])

COc1nc(C)nc(N(C)C(=O)NS(=O)(=O)c2ccccc2C(=O)O)n1 [Tribenuron]
60%: Soybean response (percent phytotoxicity), Als2 [1, 7] | Avg response (% phytotoxicity), Trait Als2 ([1]; 35 g ai/ha)
4.96 g ai/ha: EC10, Als2 [1]
40%: Soybean response (percent phytotoxicity), Als2 [1, 6] | Avg response (% phytotoxicity), Trait Als2 ([1]; 17.5 g ai/ha)
70%: Soybean response (percent phytotoxicity), Wild type (wild type soybean; [5])
93%: Soybean response (percent phytotoxicity), Wild type (wild type soybean; [6])
0%: Soybean response (percent phytotoxicity), Als2 [1, 4] | Avg response (% phytotoxicity), Trait Als2 ([1]; 4.38 g ai/ha) | Soybean response (percent phytotoxicity), Als1 [2, 4] | Avg response (% phytotoxicity), Trait Als1 ([2]; 4.38 g ai/ha) | Soybean response (percent phytotoxicity), Als1 [2, 5] | Avg response (% phytotoxicity), Trait Als1 ([2]; 8.75 g ai/ha) | Soybean response (percent phytotoxicity), Als1 [2, 6] | Avg response (% phytotoxicity), Trait Als1 ([2]; 17.5 g ai/ha) | Soybean response (percent phytotoxicity), Als1 [2, 7] | Avg response (% phytotoxicity), Trait Als1 ([2]; 35 g ai/ha) | Soybean response (percent phytotoxicity), Als1 + Als2 [3, 4] | Avg response (% phytotoxicity), Trait Als1 + Als2 ([3]; 4.38 g ai/ha) | Soybean response (percent phytotoxicity), Als1 + Als2 [3, 5] | Avg response (% phytotoxicity), Trait Als1 + Als2 ([3]; 8.75 g ai/ha) | Soybean response (percent phytotoxicity), Als1 + Als2 [3, 6] | Avg response (% phytotoxicity), Trait Als1 + Als2 ([3]; 17.5 g ai/ha) | Soybean response (percent phytotoxicity), Als1 + Als2 [3, 7] | Avg response (% phytotoxicity), Trait Als1 + Als2 ([3]; 35 g ai/ha) | Soybean response (percent phytotoxicity), Als1 + Als2 [3, 8] | Avg response (% phytotoxicity), Trait Als1 + Als2 ([3]; 70 g ai/ha)
>70 g ai/ha: EC10, Als1 + Als2 [3]
65%: Soybean response (percent phytotoxicity), Als2 [1, 8] | Avg response (% phytotoxicity), Trait Als2 ([1]; 70 g ai/ha)
15%: Soybean response (percent phytotoxicity), Als2 [1, 5] | Avg response (% phytotoxicity), Trait Als2 ([1]; 8.75 g ai/ha)
70 g ai/ha: EC10, Als1 [2]
10%: Soybean response (percent phytotoxicity), Wild type (wild type soybean; [4]) | Soybean response (percent phytotoxicity), Als1 [2, 8] | Avg response (% phytotoxicity), Trait Als1 ([2]; 70 g ai/ha)
98%: Soybean response (percent phytotoxicity), Wild type (wild type soybean; [7]) | Soybean response (percent phytotoxicity), Wild type (wild type soybean; [8])
